Test results: ChEMBL document CHEMBL5442379, “ASAP - SARS-CoV-2 nsp3 macrodomain single point” (2024)

Biological target: Replicase polyprotein 1ab (Severe acute respiratory syndrome coronavirus 2) (UniProt P0DTD1)
Description: Functional biochemical assay to identify treatments for viral infectious disease that targets SARS-COV-2 nsp3 macrodomain, whereby the mechanism of action displaces an ADP-Ribose modified peptide from the binding site. Utilizing a time-resolved fluorescence method to measure binding by reading the emitted fluorescence intensity in two wavelengths.

Structure (SMILES): Cc1cccc(OCCNc2ncnc3nc[nH]c23)c1
- inhibition (Concentration 50.0 uM, Number of replicates 2.0, Standard deviation 4.697 %): 3.91%

Structure (SMILES): C[C@H](NC(=O)c1ccc(NC(=O)Nc2ccccc2)cc1)c1ccccn1
- inhibition (Concentration 49.75 uM, Number of replicates 2.0, Standard deviation 2.561 %): 2.45%
- inhibition (Concentration 99.5 uM, Number of replicates 2.0, Standard deviation 6.365 %): 0.349%

Structure (SMILES): C[C@]1(C(=O)N(CCC(=O)N2CCNCC2)Cc2cccc(Cl)c2)CCCN1
- inhibition (Concentration 49.75 uM, Number of replicates 2.0, Standard deviation 5.247 %): 1.4%
- inhibition (Concentration 99.5 uM, Number of replicates 2.0, Standard deviation 0.402 %): 2.13%

Structure (SMILES): Nc1ncc(C(=O)N(CCC(=O)N2CCNCC2)Cc2cccc(Cl)c2)cn1
- inhibition (Concentration 49.75 uM, Number of replicates 2.0, Standard deviation 3.901 %): -2.76%
- inhibition (Concentration 99.5 uM, Number of replicates 2.0, Standard deviation 0.039 %): -1.73%

Structure (SMILES): C[C@@H]1CN(C(=O)c2ccc(NC(=O)Nc3ccccc3)cc2)CC(=O)N1
- inhibition (Concentration 49.75 uM, Number of replicates 2.0, Standard deviation 1.912 %): -0.707%
- inhibition (Concentration 99.5 uM, Number of replicates 2.0, Standard deviation 5.834 %): 0.29%

Structure (SMILES): FC(F)(F)CO[C@@H]1CCCN(c2ncnc3[nH]ccc23)C1
- inhibition (Concentration 50.0 uM, Number of replicates 2.0, Standard deviation 28.677 %): 22.2%

Structure (SMILES): O=C(c1ccnc(S)c1)N1CCC(c2ccn3ncc(C(=O)N4CCCCC4)c3c2)CC1
- inhibition (Concentration 49.75 uM, Number of replicates 2.0, Standard deviation 0.749 %): 20.2%
- inhibition (Concentration 99.5 uM, Number of replicates 2.0, Standard deviation 3.677 %): 35.5%

Structure (SMILES): CN(Cc1cn(C)nn1)C(=O)c1cnn2ccc(C3CCN(C(=O)c4ccccc4)CC3)cc12
- inhibition (Concentration 49.75 uM, Number of replicates 2.0, Standard deviation 4.768 %): 2.17%
- inhibition (Concentration 99.5 uM, Number of replicates 2.0, Standard deviation 1.859 %): 1.34%

Structure (SMILES): Cc1[nH]ncc1CN(C)C(=O)c1cnn2ccc(C3CCN(C(=O)c4ccccc4)CC3)cc12
- inhibition (Concentration 49.75 uM, Number of replicates 2.0, Standard deviation 5.917 %): -1.14%
- inhibition (Concentration 99.5 uM, Number of replicates 2.0, Standard deviation 7.587 %): 0.307%

Structure (SMILES): O=C(c1ncc[nH]1)N1CCC(c2ccn3ncc(C(=O)N4CCCCC4)c3c2)CC1
- inhibition (Concentration 49.75 uM, Number of replicates 2.0, Standard deviation 1.065 %): 18.5%
- inhibition (Concentration 99.5 uM, Number of replicates 2.0, Standard deviation 3.121 %): 37.2%

Structure (SMILES): O=C(c1ccccc1)N1CCC(c2ccn3ncc(C(=O)N4CCc5nc[nH]c5C4)c3c2)CC1
- inhibition (Concentration 49.75 uM, Number of replicates 2.0, Standard deviation 2.532 %): 11.2%
- inhibition (Concentration 99.5 uM, Number of replicates 2.0, Standard deviation 2.098 %): 20.3%

Structure (SMILES): COC(=O)[C@]1(F)CCN(C(=O)c2ccc(NC(=O)Nc3ccccc3)cc2)C1
- inhibition (Concentration 49.75 uM, Number of replicates 2.0, Standard deviation 1.195 %): -0.893%
- inhibition (Concentration 99.5 uM, Number of replicates 2.0, Standard deviation 2.11 %): 0.834%

Structure (SMILES): O=C(CNc1ncnc2[nH]ccc12)N1CCc2ccccc21
- inhibition (Concentration 50.0 uM, Number of replicates 2.0, Standard deviation 7.793 %): 1.19%

Structure (SMILES): CCn1cc(CNC(=O)c2ccc(NC(=O)Nc3ccccc3)cc2)cn1
- inhibition (Concentration 49.75 uM, Number of replicates 2.0, Standard deviation 1.767 %): -1.76%
- inhibition (Concentration 99.5 uM, Number of replicates 2.0, Standard deviation 3.239 %): 3.8%

Structure (SMILES): Cc1nc(NC(=O)c2nccc3ccncc23)c2cc[nH]c2n1
- inhibition (Concentration 50.0 uM, Number of replicates 2.0, Standard deviation 2.951 %): -5.83%
- inhibition (Concentration 100.0 uM, Number of replicates 2.0, Standard deviation 4.025 %): 2.61%

Structure (SMILES): Cc1nccc(C(=O)N2CCC(c3ccn4ncc(C(=O)N5CCCCC5)c4c3)CC2)n1
- inhibition (Concentration 49.75 uM, Number of replicates 2.0, Standard deviation 2.531 %): 16.5%
- inhibition (Concentration 99.5 uM, Number of replicates 2.0, Standard deviation 1.199 %): 27.4%

Structure (SMILES): Cc1ncc(NCc2csc(-c3ccccn3)n2)cn1
- inhibition (Concentration 49.75 uM, Number of replicates 2.0, Standard deviation 3.788 %): -5.23%
- inhibition (Concentration 99.5 uM, Number of replicates 2.0, Standard deviation 2.632 %): -4.49%

Structure (SMILES): O=C(CCN(Cc1cccc(Cl)c1)C(=O)c1ccc(O)cc1)N1CCNCC1
- inhibition (Concentration 49.75 uM, Number of replicates 2.0, Standard deviation 5.17 %): -0.343%
- inhibition (Concentration 99.5 uM, Number of replicates 2.0, Standard deviation 10.002 %): -1.63%

Structure (SMILES): CN1CCC[C@@H]1CNC(=O)c1cnn2ccc(C3CCN(C(=O)c4ccccc4)CC3)cc12
- inhibition (Concentration 49.75 uM, Number of replicates 2.0, Standard deviation 1.011 %): -4.43%
- inhibition (Concentration 99.5 uM, Number of replicates 2.0, Standard deviation 3.797 %): 1.5%

Structure (SMILES): CC1(C)CN(C(=O)c2ccc(NC(=O)Nc3ccccc3)cc2)C[C@@]1(F)C(=O)O
- inhibition (Concentration 49.75 uM, Number of replicates 2.0, Standard deviation 0.273 %): -2.57%
- inhibition (Concentration 99.5 uM, Number of replicates 2.0, Standard deviation 1.041 %): -5.19%

Structure (SMILES): O=C(NCc1nc(-c2ccco2)n[nH]1)c1cc(=O)n2ncnc2[nH]1
- inhibition (Concentration 50.0 uM, Number of replicates 2.0, Standard deviation 1.646 %): -2.6%

Structure (SMILES): Cn1cnc(C(=O)N(CCC(=O)N2CCNCC2)Cc2cccc(Cl)c2)n1
- inhibition (Concentration 49.75 uM, Number of replicates 2.0, Standard deviation 2.331 %): -1.44%
- inhibition (Concentration 99.5 uM, Number of replicates 2.0, Standard deviation 4.384 %): -0.25%

Structure (SMILES): Cc1ccc(C(=O)N(CCC(=O)N2CCNCC2)Cc2cccc(Cl)c2)[nH]1
- inhibition (Concentration 49.75 uM, Number of replicates 2.0, Standard deviation 5.038 %): -5.9%
- inhibition (Concentration 99.5 uM, Number of replicates 2.0, Standard deviation 2.609 %): -3.94%

Structure (SMILES): COc1cccc2cc(CNc3cnc4[nH]ncc4c3)oc12
- inhibition (Concentration 50.0 uM, Number of replicates 2.0, Standard deviation 5.215 %): -4.29%

Structure (SMILES): COc1cc(CNc2cnc3[nH]ncc3c2)ccc1Cl
- inhibition (Concentration 50.0 uM, Number of replicates 2.0, Standard deviation 4.023 %): -2.79%

Structure (SMILES): Cn1cc([C@H]2CSCCN2c2ncnc3[nH]ccc23)cn1
- inhibition (Concentration 49.75 uM, Number of replicates 2.0, Standard deviation 2.461 %): -6.49%
- inhibition (Concentration 99.5 uM, Number of replicates 2.0, Standard deviation 0.732 %): -3.46%

Structure (SMILES): O=S(=O)(NC[C@@H]1CCCCO1)c1cn2c(n1)CCCC2
- inhibition (Concentration 50.0 uM, Number of replicates 2.0, Standard deviation 0.892 %): -5.39%

Structure (SMILES): CC(C)[C@@H](CCN(C)C(=O)C1CCc2ccccc2CC1)Nc1ncnc2[nH]ccc12
- inhibition (Concentration 49.75 uM, Number of replicates 2.0, Standard deviation 5.252 %): -5.62%

Structure (SMILES): c1cc(CNc2ncnc3nc[nH]c23)n2ncnc2c1
- inhibition (Concentration 50.0 uM, Number of replicates 2.0, Standard deviation 1.124 %): 1.35%
- inhibition (Concentration 100.0 uM, Number of replicates 2.0, Standard deviation 5.338 %): 10%

Structure (SMILES): O=C1CCC[C@@H](C(=O)N(CCC(=O)N2CCNCC2)Cc2cccc(Cl)c2)N1
- inhibition (Concentration 49.75 uM, Number of replicates 2.0, Standard deviation 3.727 %): 2.42%
- inhibition (Concentration 99.5 uM, Number of replicates 2.0, Standard deviation 3.7 %): -3.31%

Structure (SMILES): CC(C)c1c[nH]nc1NC(=O)c1ccc(NC(=O)Nc2ccccc2)cc1
- inhibition (Concentration 49.75 uM, Number of replicates 2.0, Standard deviation 3.059 %): 6.99%
- inhibition (Concentration 99.5 uM, Number of replicates 2.0, Standard deviation 3.555 %): 8.5%

Structure (SMILES): COc1cc(CC(=O)Nc2cc3c(=O)nc[nH]c3cn2)on1
- inhibition (Concentration 49.75 uM, Number of replicates 2.0, Standard deviation 0.449 %): -4.69%
- inhibition (Concentration 99.5 uM, Number of replicates 2.0, Standard deviation 2.956 %): -3.48%

Structure (SMILES): CN(C(=O)c1ccc(NC(=O)Nc2ccccc2)cc1)[C@@H]1CN2CCC1CC2
- inhibition (Concentration 49.75 uM, Number of replicates 2.0, Standard deviation 0.826 %): -4.01%
- inhibition (Concentration 99.5 uM, Number of replicates 2.0, Standard deviation 1.597 %): 2.77%

Structure (SMILES): O=C(c1cccnc1S)N1CCC(c2ccn3ncc(C(=O)N4CCCCC4)c3c2)CC1
- inhibition (Concentration 49.75 uM, Number of replicates 2.0, Standard deviation 1.032 %): 32.3%
- inhibition (Concentration 99.5 uM, Number of replicates 2.0, Standard deviation 1.028 %): 52.6%

Structure (SMILES): Cc1cccc(Cl)c1-n1sc(=O)n(CC2CC2)c1=O
- inhibition (Concentration 50.0 uM, Number of replicates 2.0, Standard deviation 1.233 %): 51.9%

Structure (SMILES): CCN1CCN(C(=O)c2cnn3ccc(C4CCN(C(=O)c5ccccc5)CC4)cc23)CC1=O
- inhibition (Concentration 49.75 uM, Number of replicates 2.0, Standard deviation 2.605 %): -8.63%
- inhibition (Concentration 99.5 uM, Number of replicates 2.0, Standard deviation 4.496 %): -3.46%

Structure (SMILES): NS(=O)(=O)c1ccccc1CNc1ncnc2[nH]ccc12
- inhibition (Concentration 50.0 uM, Number of replicates 2.0, Standard deviation 10.219 %): 3.66%

Structure (SMILES): CC(C)n1cc(S(=O)(=O)Nc2cnc3[nH]ncc3c2)cn1
- inhibition (Concentration 50.0 uM, Number of replicates 4.0, Standard deviation 3.956 %): 1.55%

Structure (SMILES): C[C@@H](Cc1ccc(Cl)s1)Nc1ccc([C@@H](CC(=O)O)NC(=O)c2c[nH]c3ncncc23)cc1
- inhibition (Concentration 49.75 uM, Number of replicates 2.0, Standard deviation 2.68 %): -1.54%
- inhibition (Concentration 99.5 uM, Number of replicates 2.0, Standard deviation 2.267 %): 1.95%

Structure (SMILES): c1coc(CNc2ncnc3[nH]cnc23)c1
- inhibition (Concentration 50.0 uM, Number of replicates 2.0, Standard deviation 0.16 %): 2.63%

Structure (SMILES): O=C(C[C@@H](NC(=O)c1ncnc2[nH]ccc12)C1CC1)NCc1ccc(C(=O)O)cc1
- inhibition (Concentration 49.75 uM, Number of replicates 2.0, Standard deviation 1.213 %): -9.86%
- inhibition (Concentration 99.5 uM, Number of replicates 2.0, Standard deviation 0.076 %): 0.768%

Structure (SMILES): O=C(CCN(Cc1cccc(Cl)c1)C(=O)c1ccc(F)cn1)N1CCNCC1
- inhibition (Concentration 49.75 uM, Number of replicates 2.0, Standard deviation 0.987 %): 6.76%
- inhibition (Concentration 99.5 uM, Number of replicates 2.0, Standard deviation 1.391 %): 6.74%

Structure (SMILES): O=C(c1nnn[nH]1)N1CCC(c2ccn3ncc(C(=O)N4CCCCC4)c3c2)CC1
- inhibition (Concentration 49.75 uM, Number of replicates 2.0, Standard deviation 0.79 %): 55.1%
- inhibition (Concentration 99.5 uM, Number of replicates 2.0, Standard deviation 0.232 %): 69%

Structure (SMILES): CC(C)n1nccc1NC(=O)c1ccc(NC(=O)Nc2ccccc2)cc1
- inhibition (Concentration 49.75 uM, Number of replicates 2.0, Standard deviation 2.48 %): -2%
- inhibition (Concentration 99.5 uM, Number of replicates 2.0, Standard deviation 1.778 %): -0.924%

Structure (SMILES): O=C(Nc1ccccc1)Nc1ccc(C(=O)NC2c3cccc(O)c3CC2C(=O)O)cc1 (stereo not given)
- inhibition (Concentration 50.0 uM, Number of replicates 2.0, Standard deviation 0.256 %): 99.9%

Structure (SMILES): c1nc(NCc2cnc3sccn23)c2[nH]cnc2n1
- inhibition (Concentration 50.0 uM, Number of replicates 2.0, Standard deviation 7.011 %): -4.78%
- inhibition (Concentration 100.0 uM, Number of replicates 2.0, Standard deviation 4.457 %): 5.65%

Structure (SMILES): COc1cc(OC)cc(C(=O)N(CCC(=O)N2CCNCC2)Cc2cccc(Cl)c2)c1
- inhibition (Concentration 50.0 uM, Number of replicates 2.0, Standard deviation 1.533 %): -4.53%
